Assay results: patent US20110280940A1, “Di-Vanilloyl And Tri-Vanilloyl Derivatives For Use In Anti-Cancer Therapy” (priority 2008, published 2011)
Like-named read-outs stand apart in the source and are kept apart here.

Tests used:
CK1 = assay: Kinase activity assay, CK1; format: biochemical, porcine; conditions: 10 μM, 1% DMSO, 15 μM ATP; residual activity
Procedure: Buffer A: 10 mM MgCl2, 1 mM EGTA, 1 mM DTT, 25 mM Tris-HCl pH 7.5, 50 μg heparin/ml. Buffer C: 60 mM β-glycerophosphate, 15 mM p-nitrophenylphosphate, 25 mM Mops (pH 7.2), 5 mM EGTA, 15 mM MgCl2, 1 mM DTT, 1 mM sodium vanadate, 1 mM phenyl phosphate.
Kinase activities were assayed in Buffer A or C, at 30° C., at a final ATP concentration of 15 μM. Blank values were subtracted and activities expressed in % of the maximal activity, i.e. in the absence of inhibitors. Controls were performed with appropriate dilutions of DMSO.
CK1 (porcine brain, native) was assayed as described for CDK1 but using the CK1-specific peptide substrate […]pSAYSITA (Seq. ID NO 2) (Reinhardt et al., 2007, Protein Expr. & Purif. 54, 101-109), obtained from Millegen (Labege, France).

[1] = tested on: A549 non-small-cell-lung cancer cell line; assay: Cellular imaging (quantitative videomicroscopy), global growth ratio, A549; format: cell-based; conditions: Homo sapiens, 72 h, read-out: Global Grow Ratio Treated/Ct (GGR T/Ct) determined by Video Quantitative microscopy, A549
VM21 melanoma cells = assay: MTT colorimetric assay, overall cell growth, VM21; format: cell-based, human; conditions: Homo sapiens, read-out: In Vitro IC50 Growth Inhibitory Values, VM21
Method in brief: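 Growth is measured as remaining living cells relative to untreated controls after 72 h at 37 °C with compound at 10^-8 to 10^-4 M. Readout is MTT formazan absorbance at 570 nm.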

U373-MG glioma cell line = assay: Cellular imaging (quantitative videomicroscopy), global growth ratio, U373; format: cell-based; conditions: Homo sapiens, 72 h, read-out: Global Grow Ratio Treated/Ct (GGR T/Ct) determined by Video Quantitative microscopy, U373

| Compound | activity at 50 µM [1] | IC50 (VM21 melanoma cells; MTT, 72 hours of incubation) | IC50 (VM21 melanoma cells; 72 h) | other results |
| --- | --- | --- | --- | --- |
| COc1cc(C(=O)OCCOC(=O)c2ccc(O)c(OC)c2)ccc1O [DLT1, Ethane-1,2-diyl bis-(4-hydroxy-3-methoxybenzoate)] | 50% | 55 µM | – | % ENZYMATIC ACTIVITY, Ckone (CK1): 62% |
| COc1cc(C(=O)OCCCCCCOC(=O)c2ccc(O)c(OC)c2)ccc1O [DLT11, Hexane-1,6-diyl bis-(4-hydroxy-3-methoxybenzoate)] | 20% | 71 µM | – | – |
| O=C(OCc1cc(COC(=O)c2ccc(O)c(Cl)c2)cc(COC(=O)c2ccc(O)c(Cl)c2)c1)c1ccc(O)c(Cl)c1 [DLT95-Cl, [3,5-bis[(4-hydroxy-3-chloro-benzoyl)oxymethyl]phenyl]methyl 4-hydroxy-3-chloro-benzoate] | – | – | 35 µM | activity at 31 µM (U373-MG glioma cell line): 50% |
| O=C(OCc1cc(COC(=O)c2ccc(O)c(F)c2)cc(COC(=O)c2ccc(O)c(F)c2)c1)c1ccc(O)c(F)c1 [DLT95-F, [3,5-bis[(4-hydroxy-3-fluoro-benzoyl)oxymethyl]phenyl]methyl 4-hydroxy-3-fluoro-benzoate] | – | – | 65 µM | activity at 37 µM (U373-MG glioma cell line): 40% |
| COc1cc(C(=O)O)ccc1O [vanillic acid, reference compound] | – | > 1000 µM | – | – |
